From patent US20240091303A1, “BIOMARKER-BASED TREATMENT OF FOCAL SEGMENTAL GLOMERULOSCLEROSIS AND DIABETIC KIDNEY DISEASE” (Goldfinch Bio, Inc., priority 2019, published 2024)

Tests used:
[1] = tested on: Rac1 protein in the urine; assay: Urinary Rac1 analysis in naive rats following treatment with Compound 1; type: in vivo, Sprague Dawley rats; details: 10 mg/kg oral gavage once daily for 7 days
Method: The aim of this study was to measure the amount of Rac1 protein in the urine of healthy rats treated with Compound 1.
Six to seven weeks old Sprague Dawley rats were placed in metabolic cage housing for urine collection. Following two 24-hour periods of pre-dose urine collection, received one daily dose of Compound 1 administered by oral gavage at 10 mg/kg for 7 days; control animals were administered vehicle. Urine was collected for 24-hour periods beginning on the day of dosing inception and on days 3 and 6 of dosing.
Urine samples were concentrated as follows: 20 mL of urine was spun at 1500×g for 5 min to remove cell debris. Samples were concentrated using a Pierce protein concentrator with 10 kDa MWCO (Cat# 88516, Thermo Scientific, USA) and spun at 6000×g for 30 min at 4° C. using rotor JA 14.50 (Beckman Coulter, USA) in an AVANTI-JE centrifuge, (Beckman Coulter). A second centrifugation at 6000×g for 30 min at 4° C. was performed for samples that were concentrated to a volume that was >1 mL, to achieve a volume of <1 mL for all samples. The concentrated urine was collected and stored in −80° C. Next, the samples were analyzed for urinary Rac1 by ELISA (Cat# abx253084, Abbexa Ltd, UK) and urinary creatinine by ELISA (Cat# ab65340, Abcam, USA) following standard procedures according to the manufacturer's instructions. […]

[2] = tested on: Rac1 protein in the urine; assay: Urinary Rac1 analysis in DOCA-salt hypertensive rats following treatment with Compound 1; type: in vivo, Sprague Dawley rats
Description: The aim of this study was to measure the amount of Rac1 protein in the urine of DOCA-salt hypertensive rats treated with Compound 1.
(§1) The DOCA-salt hypertensive rat model is a well-established model of mineralocorticoid hypertension with renal dysfunction leading to an FSGS phenotype, characterized by increased levels of urinary protein and albumin excretion. [Schenk et al., “The pathogenesis of DOCA-salt hypertension,” J. Pharmacol. Toxicol. Methods (May 1992) 27 (3):161-170; Gomez-Sanchez et al., “Mineralocorticoids, salt and high blood pressure,” Steroids (1996) 61:184-188.]
Six to seven weeks old Sprague Dawley rats were unilaterally nephrectomized. After one-week recovery, rats were implanted with a DOCA pellet (45 mg) and provided tap water containing 0.9% NaCl and 0.2% KCl (Day 1) for a 4 weeks treatment. […] Body weight was recorded daily throughout the study. […] Urine was collected for 24-hour periods beginning on day 17, day 20, day 24 and day 27, and urine protein and albumin were measured using standard methods.
For Rac1 analysis, urine samples were concentrated as follows: 20 mL of urine was spun at 1500×g for 5 min to remove cell debris. […] Next, the samples were analyzed for urinary Rac1 by ELISA (Cat# abx253084, Abbexa Ltd, UK) and urinary creatinine by ELISA (Cat# ab65340, Abcam, USA) following standard procedures according to the manufacturer's instructions. […]

[3] = tested on: Rac1 protein in the urine; assay: Urinary Rac1 analysis in healthy human subjects following treatment with Compound 1 (Phase 1, NCT03970122); type: in vivo
Method: The aim of this study was to measure the amount of Rac1 protein in the urine of healthy human subjects treated with Compound 1.
Healthy human subjects enrolled in a Phase 1 clinical study, “A First-In-Human, Phase 1, Placebo-Controlled Study to Evaluate the Safety, Tolerability, and Pharmacokinetics of Compound 1, a TRPC5 Channel Inhibitor, in Healthy Subjects and Subjects With Renal Impairment,” (NCT03970122) were administered a single, oral dose of either a placebo or 20 mg Compound 1 as a tablet. A urine sample was collected prior to administration of drug, and urine pools were then collected from 0-4 hours, 4-8 hours, 8-12 hours, 12-24 hours, 24-48 hours and 48-72 hours after dosing.
For Rac1 analysis, urine samples were concentrated as follows: 20 mL of urine was spun at 1500×g for 5 min to remove cell debris. Samples were concentrated using a Pierce protein concentrator with 10 kDa MWCO (Cat# 88516, Thermo Scientific, USA) and spun at 6000×g for 30 min at 4° C. using rotor JA 14.50 (Beckman Coulter, USA) in an AVANTI-JE centrifuge, (Beckman Coulter). A second centrifugation at 6000×g for 30 min at 4° C. was performed for samples that were concentrated to a volume that was >1 mL, to achieve a volume of <1 mL for all samples. The concentrated urine was collected and stored in −80° C. Next, the samples were analyzed for urinary Rac1 by ELISA (Cat# abx253084, Abbexa Ltd, UK) and urinary creatinine by ELISA (Cat# ab65340, Abcam, USA) following standard procedures according to the manufacturer's instructions. The amount of Rac1 in the urine was normalized to the amount of creatinine in the urine to control for the volume of urine produced.
Additional data was obtained from human subjects that were administered a single, oral dose of either a placebo, 5 mg of Compound 1 as a liquid suspension or 20, 40 or 80 mg of Compound 1 as tablets. A urine sample was collected prior to administration of drug, and urine pools were then collected from 0-4 hours, 4-8 hours, 8-12 hours, 12-24 hours, and for each 24 hour period from day 2 through day 7 after dosing. Each dose level comprised 2 placebo and 8 treated subjects.

ZDSD rats = assay: ZDSD model of diabetic nephropathy, albuminuria; type: in vivo, rat
Description: The aim of this study was to evaluate the effects of the TRCPS inhibitor, Compound 1, to attenuate the development and/or progression of albuminuria in ZDSD model of diabetic nephropathy (DN).
The ZDSD model is an established model which recapitulates the major features of diabetes including impaired glucose metabolism, neuropathy, retinopathy and nephropathy [Peterson et al., “Characterization of the ZDSD Rat: A Translational Model for the Study of Metabolic Syndrome and Type 2 Diabetes,” J. Diabetes. Res. (2015), Article ID 487816, 10 pages; Peterson et aL, “The ZDSD rat: a novel model of diabetic nephropathy,” Am. J. Transl. Res. (2017) 9: 4236-4249].
Male ZDSD rats (Crown Bioscience, Indianapolis, IN., n=79) were maintained on standard rodent chow (Purina 5008) from weaning to 15 weeks of age. A diabetogenic diet (Research Diet D124668) was initiated and maintained for three weeks to synchronize development of hyperglycemia. Diabetogenic diet was replaced with Purina 5008 for remainder of the study. Animals were housed two per cage and maintained on a 12 hour light cycle (0600-1800). Room temperature was monitored daily and maintained at 70-74° F. Food and water were provided ad libitum for duration of the study. […]
Body weight was recorded weekly. Food consumption was recorded weekly during the treatment phase from week 0 through 12. […]

[4] = tested on: DOCA-salt hypertensive rats; assay: Effects of Compound 1 in DOCA-salt hypertensive rats (albuminuria); type: in vivo, Sprague Dawley rats; details: for urinary albumin excretion: week 2 to week 4, FIG. 7
Description: The aim of this study was to evaluate the effects of the TRCPS inhibitor, Compound 1, to attenuate the development and/or progression of albuminuria in deoxycorticosterone acetate (DOCA)-salt hypertensive rats.
as §1
Six to seven weeks old Sprague Dawley rats were unilaterally nephrectomized; after one-week recovery, rats were implanted with a DOCA pellet (45 mg) and provided tap water containing 0.9% NaCl and 0.2% KCl (Day 1) for a 4 weeks treatment. On Day 1, DOCA-salt rats received one daily dose of Compound 1 administered by oral gavage at 3 mg/kg or 10 mg/kg for 4 weeks; control animals for DOCA treatment were administered vehicle. Sham animals, implanted with a silicone-water pellet, were given tap water and received oral administration of the vehicle. Body weight was recorded daily and proteinuria, albuminuria and arterial blood pressure were recorded every week.

COL4A4 knockout mice = assay: Effects of Compound 1 in COL4A4 knockout mice (Alport model); type: in vivo, mouse; details: 3 mg/kg or 10 mg/kg oral gavage once daily for 4 weeks, FIG. 8
Description: The aim of this study was to evaluate the effects of the TRCPS inhibitor, Compound 1, to attenuate the development and/or progression of albuminuria in […] knockout mice.
The COL4A4 knockout mouse model is a well-established model of Alport disease, characterized by increased levels of urinary protein and albumin excretion. [Korstanje et al., “A mouse Col4a4 mutation causing Alport glomerulosclerosis with abnormal collagen α3α4α5(IV) trimers,” Kidney Int. (2014) 85:1461-1468].
Four to five weeks old COL4A4 knockout mice were received one daily dose of Compound 1 administered by oral gavage at 3 mg/kg or 10 mg/kg for 4 weeks; control animals were administered vehicle. Body weight was recorded daily and urinary protein and creatinine were recorded every week, and the ratio of urine protein to creatinine (UPCR) was calculated.

[5] = tested on: DOCA-salt hypertensive rats; assay: Effects of Compound 3 in DOCA-salt hypertensive rats (albuminuria), eplerenone control; type: in vivo, Sprague Dawley rats
Method: The aim of this study was to evaluate the effects of the TRCPS inhibitor, Compound 3, to attenuate the development and/or progression of albuminuria in deoxycorticosterone acetate (DOCA)-salt hypertensive rats.
Six to seven weeks old Sprague Dawley rats were unilaterally nephrectomized; after one-week recovery, rats were implanted with a DOCA pellet (45 mg) and provided tap water containing 0.9% NaCl and 0.2% KCl (Day 1) for a 4 weeks treatment. On Day 1, DOCA-salt rats received one daily dose of Compound 3 administered by oral gavage at 30 mg/kg for 4 weeks; control animals for DOCA treatment were administered vehicle or the mineralocorticoid receptor antagonist (MCRA) eplerenone by twice-daily oral gavage at 50 mg/kg. Sham animals, implanted with a silicone-water pellet, were given tap water and received SC administration of the vehicle. Body weight was recorded daily and proteinuria, albuminuria and arterial blood pressure were recorded every week.

[6] = tested on: DOCA-salt hypertensive rats; assay: Effects of cyclosporine A and tacrolimus in DOCA-salt hypertensive rats (albuminuria); type: in vivo, Sprague Dawley rats; parameters: urinary albumin excretion: dose or concentration left out as unconfirmed
Method: The DOCA-salt hypertensive rat model is a well-established model of mineralocorticoid hypertension with renal dysfunction leading to an FSGS phenotype, characterized by increased levels of urinary protein and albumin excretion. [Schenk et al., “The pathogenesis of DOCA-salt hypertension,” J. Pharmacol. Toxicol.
Six to seven weeks old Sprague Dawley rats were unilaterally nephrectomized; after one-week recovery, rats were implanted with a DOCA pellet (45 mg) and provided tap water containing 0.9% NaCl and 0.2% KCl (Day 1) for a 3 weeks treatment. […] Sham animals, implanted with a silicone-water pellet, were given tap water and received administration of the vehicle. Proteinuria and albuminuria were recorded every week, and body weight was recorded daily.

O=c1[nH]ncc(N2CCc3c(ncnc3Oc3ccc(F)cc3C(F)(F)F)C2)c1Cl [Compound 1]
adverse effects [1]: No adverse effects were observed
urinary Rac1 levels (Rac1 normalized to creatinine) ([1]; vs pre-dose levels, significance at day 4 (p<0.01), FIG. 2): reduced urinary Rac1 levels
adverse effects ([2]; 10 mg/kg oral gavage once daily for 7 days from day 21): No adverse effects were observed
urinary Rac1 levels (Rac1 normalized to creatinine) ([2]; 10 mg/kg oral gavage once daily for 7 days from day 21, vs pre-dose levels, significance day 25 (p<0.01), FIG. 3): reduced urinary Rac1 levels
urinary Rac1 levels (Rac1 normalized to creatinine) ([3]; healthy humans, single oral 20 mg tablet, vs pre-dose, significance by 8-12 hours after dosing (p<0.05), FIG. 4): reduced urinary Rac1 levels
time urinary Rac1 levels remained reduced ([3]; humans, single 40 mg oral dose): up to 4 days
time urinary Rac1 levels remained reduced ([3]; humans, single 80 mg oral dose): at least 7 days
urinary Rac1 levels ([3]; humans, single oral dose 5 mg suspension or 20, 40, 80 mg tablets, significance by 8-12 hours with 40 mg and 80 mg doses vs pre-dose (p<0.05), FIG. 4B): reduced urinary Rac1 levels
body weight (ZDSD rats; 3 mg/kg and 10 mg/kg oral gavage daily for 12 weeks, vs vehicle group, last two weeks of study): increase in body weight
urinary albumin excretion (ZDSD rats; 3 or 10 mg/kg/d oral gavage 12 weeks, week 6 to week 12, significance at weeks 10 to 12 vs vehicle (p<0.001), FIG. 6): attenuated urinary albumin excretion
urinary albumin excretion ([4]; 3 mg/kg oral daily, significant at week 3 vs DOCA-vehicle (p<0.05)): attenuated urinary albumin excretion
urinary albumin excretion ([4]; 10 mg/kg oral daily, vs DOCA-vehicle, p<0.05 week 2, p<0.001 weeks 3 and 4): attenuated urinary albumin excretion
body weight ([4]; DOCA vs DOCA and Compound 1, 3 or 10 mg/kg oral daily 4 weeks): no significant difference
adverse effects ([4]; DOCA-salt rats, 3 or 10 mg/kg oral gavage once daily for 4 weeks): No adverse effects were observed
urinary protein to creatinine ratio (UPCR) (COL4A4 knockout mice): no effect

COC(=O)[C@@H]1CC2=CC(=O)CC[C@]2(C)[C@@]23O[C@@H]2C[C@@]2(C)[C@@H](CC[C@@]24CCC(=O)O4)[C@H]13 [eplerenone]
body weight ([5]; DOCA vs DOCA plus Compound 3 (30 mg/kg oral daily) or eplerenone (50 mg/kg oral twice daily)): no significant difference
urinary albumin excretion ([5]; eplerenone 50 mg/kg twice-daily oral gavage, week 4 vs DOCA-vehicle (p<0.05), FIG. 10): significantly attenuated urinary albumin excretion

C=CC[C@@H]1/C=C(\C)C[C@H](C)C[C@H](OC)[C@H]2O[C@@](O)(C(=O)C(=O)N3CCCC[C@H]3C(=O)O[C@H](/C(C)=C/[C@@H]3CC[C@@H](O)[C@H](OC)C3)[C@H](C)[C@@H](O)CC1=O)[C@H](C)C[C@@H]2OC [tacrolimus, Tacrolimus]
body weight ([6]; DOCA and tacrolimus 0.3 mg/kg oral gavage daily, first two weeks): significant loss of body weight
urinary albumin excretion ([6]; tacrolimus 0.3/0.1 oral daily, weeks 2 and 3 vs DOCA-vehicle (p<0.05), FIG. 12): significantly attenuated urinary albumin excretion
body weight after dose adjustment ([6]; tacrolimus dose adjusted from 0.3 mg/kg down to 0.1 mg/kg after two weeks of dosing): reversed the weight loss
